The results in this text go back to patent publication US20240336593A1, “Compound Having Antitumor Activity And Use Thereof” (lnnovStoneTherapeutics Limited, priority 2020, published 2024).

Molecules are shown by their SMILES.

PRMT5, sequence (O14744 whole entry): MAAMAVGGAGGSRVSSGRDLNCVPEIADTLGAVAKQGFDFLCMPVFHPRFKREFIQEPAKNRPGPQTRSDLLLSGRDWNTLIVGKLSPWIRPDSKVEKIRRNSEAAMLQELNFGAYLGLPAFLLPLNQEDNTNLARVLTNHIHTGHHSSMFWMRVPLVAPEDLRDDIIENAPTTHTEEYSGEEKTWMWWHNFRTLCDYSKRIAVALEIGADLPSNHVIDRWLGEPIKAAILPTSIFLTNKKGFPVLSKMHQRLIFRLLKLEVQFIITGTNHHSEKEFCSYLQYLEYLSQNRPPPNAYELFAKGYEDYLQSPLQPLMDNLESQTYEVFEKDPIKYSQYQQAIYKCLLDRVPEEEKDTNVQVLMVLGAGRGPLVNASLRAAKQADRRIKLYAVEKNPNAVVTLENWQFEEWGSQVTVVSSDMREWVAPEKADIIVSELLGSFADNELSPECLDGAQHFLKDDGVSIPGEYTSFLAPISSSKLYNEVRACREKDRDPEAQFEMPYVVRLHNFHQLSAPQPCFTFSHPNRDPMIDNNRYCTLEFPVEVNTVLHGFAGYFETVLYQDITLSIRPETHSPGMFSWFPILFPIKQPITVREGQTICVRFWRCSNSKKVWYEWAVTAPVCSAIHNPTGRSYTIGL
PRMT5, sequence (Q9BQA1 whole entry partner): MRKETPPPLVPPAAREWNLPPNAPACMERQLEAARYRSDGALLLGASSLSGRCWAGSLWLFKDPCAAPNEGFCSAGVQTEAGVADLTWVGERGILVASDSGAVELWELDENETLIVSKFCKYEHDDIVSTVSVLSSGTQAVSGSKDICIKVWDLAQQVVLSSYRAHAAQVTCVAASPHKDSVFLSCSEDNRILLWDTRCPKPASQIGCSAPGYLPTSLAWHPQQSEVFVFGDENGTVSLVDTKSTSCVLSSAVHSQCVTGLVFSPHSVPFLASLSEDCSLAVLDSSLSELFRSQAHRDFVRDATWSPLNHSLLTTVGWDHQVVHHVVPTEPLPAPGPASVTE

The assay has as its target PRMT5 (Homo sapiens (Human), UniProt O14744). Briefly: Inhibitory activity against PRMT5 enzyme by radioisotopic method. In kind it is biochemical. Conditions: PRMT5 5 nM, [3H]-SAM 0.3 μM, polypeptide substrate GL-27 100 nM, room temperature. The procedure:
Test Example 1. Test on the inhibitory activity of the compounds of the invention against PRMT5 enzyme by radioisotopic method
Test method: A 1× enzyme reaction buffer (10 mM Tris 8.0 (Sigma, Cat. No. T2694-1L), 0.01% Tween-20 (Sigma, Cat. No. P2287-100 ML), 1 mM DTT (Sigma, Cat. No. D0632-10G)) was prepared. PRMT5 (Active Motif, Cat. No. 31921) and [3H]—SAM (PerkinElmer, Cat. No. NET155V001MC) were added to the 1×enzyme reaction buffer, to prepare a 25/15× mixed solution (PRMT5 final concentration: 5 nM, [3H]—SAM final concentration: 0.3 μM). 15 μL of this solution was transferred into a 384-well microplate (Corning 384-well Polypropylene Storage Microplates, Cat. No. 3657) with various concentrations of the compounds (DMSO final concentration 1%), and incubated at room temperature for 60 minutes. A polypeptide substrate, GL-27 (Ac-[…]-K (Biotin) (GL Biochem, Cat. No. 342095)), was added into the 1×enzyme reaction buffer to prepare a 25/10× substrate solution. Then 10 μL of the polypeptide substrate solution (final concentration of the polypeptide substrate: 100 nM) was added, a reaction was stirred at room temperature for 120 minutes, and then 5 μL 6× ice cold SAM (Sigma, Cat. No. A7007-100 MG) solution was added to stop the reaction (SAM final concentration: 0.125 mM). 25 µL of the reaction mixture was transferred into a FlashPlate (Streptavidin FlashPlate HTS PLUS, High Capacity, 384-well, Perkin Elmer, Cat. No. SMP410A001PK), and incubated at room temperature for 1 h. After washed three times with distilled water containing 0.1% Tween-20, the microplate was read on a MicroBeta reader for CPM data (Counts Per Minute). […] Then the inhibition rate Inh % (Y) corresponding to each concentration (X) was input in EXCEL, and the IC50 value (the half maximal inhibitory concentration) of each compound was calculated with the XLfit plug-in according to the built-in four-parameter fitting equation Y=Bottom+(Top-Bottom)/(1+(IC50/X)[…]).
In the case of `O=C(c1cc(NC2CCN(C(=O)C3CC3)CC2)ncn1)N1CC[C@H](N2CCc3ccccc3C2)[C@@H](O)C1` (relative stereo) [Example 116, trans-(6-((1-(cyclopropanecarbonyl)piperidin-4-yl)amino)pyrimidin-4-yl)(4-(3,4-dihydroisoquinolin-2(1H)-yl)-3-hydroxypiperidin-1-yl)ketone], the IC50 – broadly, the concentration at which inhibition is half-maximal – is < 100 nM.

Take `CC(=O)N1CCC(Nc2cc(C(=O)N3CC[C@H](N4CCc5ccccc5C4)[C@@H](O)C3)nc(Cl)n2)CC1` (relative stereo) [Example 117, trans-1-(4-((2-chloro-6-(4-(3,4-dihydroisoquinolin-2(1H)-yl)-3-hydroxypiperidine-1-carbonyl)pyrimidin-4-yl)amino)piperidin-1-yl)ethan-1-one]: the IC50 is < 100 nM.

For the molecule `CC(=O)N1CCC(Nc2cc(C(=O)N3CC[C@H](N4CCc5ccccc5C4)[C@@H](O)C3)nc(N(C)C)n2)CC1` (relative stereo) [Example 118, trans-1-(4-((6-(4-(3,4-dihydroisoquinolin-2(1H)-yl)-3-hydroxypiperidine-1-carbonyl)-2-(dimethylamino)pyrimidin-4-yl)amino)piperidin-1-yl)ethan-1-one], the half-maximal inhibitory concentration (IC50) is < 100 nM.

As for `CC(=O)N1CCC(Sc2cc(C(=O)N3CC[C@H](N4CCc5ccccc5C4)[C@@H](O)C3)ncn2)CC1` (relative stereo) [Example 119, trans-1-(4-((6-(4-(3,4-dihydroisoquinolin-2(1H)-yl)-3-hydroxypiperidine-1-carbonyl)pyrimidin-4-yl)thio)piperidin-1-yl)ethan-1-one], the half-maximal inhibitory concentration (IC50) was < 100 nM.

For `COc1nc(NC2CCN(C(C)=O)CC2)cc(C(=O)N2CC[C@H](N3CCc4ccccc4C3)[C@@H](O)C2)n1` (relative stereo) [Example 120, 1-(4-((6-(trans-4-(3,4-dihydroisoquinolin-2(1H)-yl)-3-hydroxypiperidine-1-carbonyl)-2-methoxypyrimidin-4-yl)amino)piperidin-1-yl)ethan-1-one], the IC50 was < 100 nM.

For the molecule `COC(=O)N1CCC(Nc2cc(C(=O)N3CC[C@H](N4CCc5ccccc5C4)[C@@H](O)C3)ncn2)CC1` (relative stereo) [Example 123, methyl trans-4-((6-(4-(3,4-dihydroisoquinolin-2(1H)-yl)-3-hydroxypiperidine-1-carbonyl)pyrimidin-4-yl)amino)piperidine-1-carboxylate], the IC50 is < 100 nM.

On to `CNC(=O)c1ccc(Nc2cc(C(=O)N3CC[C@H](N4CCc5ccccc5C4)[C@@H](O)C3)ncn2)cc1` (relative stereo) [Example 131, trans-4-((6-(4-(3,4-dihydroisoquinolin-2(1H)-yl)-3-hydroxypiperidine-1-carbonyl)pyrimidin-4-yl)amino)-N-methylbenzamide], for which the IC50 was < 100 nM.

Take `CNC(=O)c1cccc(Nc2cc(C(=O)N3CC[C@H](N4CCc5ccccc5C4)[C@@H](O)C3)ncn2)c1` (relative stereo) [Example 134, trans-3-((6-(4-(3,4-dihydroisoquinolin-2(1H)-yl)-3-hydroxypiperidine-1-carbonyl)pyrimidin-4-yl)amino)-N-methylbenzamide]: the IC50 is < 100 nM.

Take `CC(=O)N1CCC(Oc2cc(C(=O)N3CC[C@@H](N4CCc5ccccc5C4)[C@H](O)C3)ncn2)CC1` (relative stereo) [Example 142, trans-1-(4-((6-(4-(3,4-dihydroisoquinolin-2(1H)-yl)-3-hydroxypiperidine-1-carbonyl)pyrimidin-4-yl)oxy)piperidin-1-yl)ethan-1-one]: the IC50 was < 100 nM.

For `CC(=O)N1CCC(Nc2cc(C(=O)N3CC[C@H](N4CCc5ccccc5C4)[C@@H](O)C3)nc(N3CCOCC3)n2)CC1` (relative stereo) [Example 144, 1-(4-((6-(trans-4-(3,4-dihydroisoquinolin-2(1H)-yl)-3-hydroxypiperidine-1-carbonyl)-2-morpholinopyrimidin-4-yl)amino)piperidin-1-yl)ethan-1-one], the IC50 was < 100 nM.

Consider `Cc1ccc(Nc2cc(N3CC[C@H](N4CCc5ccccc5C4)[C@@H](O)C3)ncn2)cc1` [Example 41, trans-1-(6-((4-methylphenyl)amino)pyrimidin-4-yl)-4-(3,4-dihydroisoquinolin-2(l H)-yl)piperidin-3-ol], for which the IC50 is < 100 nM.

On to `O[C@H]1CN(c2cc(Nc3cccc4c3OCO4)ncn2)CC[C@@H]1N1CCc2ccccc2C1` [Example 83, trans-1-(6-(benzo[d][1,3]dioxazol-4-ylamino)pyrimidin-4-yl)-4-(3,4-dihydroisoquinolin-2(1H)-yl)piperidin-3-ol], for which the IC50 was < 100 nM.

Take `O[C@@H]1CN(c2cc(Nc3cccc(Cl)c3Cl)ncn2)CC[C@H]1N1CCc2ccccc2C1` [Example 89]: the IC50 is < 100 nM.

For `COCCN1CCC(Nc2cc(C(=O)N3CC[C@H](N4CCc5ccccc5C4)[C@@H](O)C3)ncn2)CC1` [Example 96], the IC50 is < 100 nM.

For `O=C(c1cc(N2CC[C@H](N3CCc4ccccc4C3)[C@@H](O)C2)ncn1)N1CC[C@H](N2CCc3ccccc3C2)[C@@H](O)C1` [Example 97], the IC50 is < 100 nM.

With `O=C(c1cc(Nc2ccccc2)ncn1)N1CC[C@H](N2CCc3ccccc3C2)[C@@H](O)C1` [Example 101], the IC50 was < 100 nM.

For the molecule `CC(=O)N1CCC(CNc2cc(C(=O)N3CC[C@H](N4CCc5ccccc5C4)[C@@H](O)C3)ncn2)CC1` [Example 103], the IC50 was < 100 nM.

`CC(=O)N1CCC(Nc2cc(C(=O)N3CC[C@H](N4CCc5ccccc5C4)[C@@H](O)C3)nc(-c3ccccc3)n2)CC1` [Example 104]: the IC50 was < 100 nM.

As to `O=C(c1cc(Nc2cccc(N3CCCC3)c2)ncn1)N1CC[C@H](N2CCc3ccccc3C2)[C@@H](O)C1` [Example 108], the IC50 was < 100 nM.

With `O=C(c1cc(NC2CCOCC2)ncn1)N1CC[C@H](N2CCc3ccccc3C2)[C@@H](O)C1` [Example 109], the IC50 is < 100 nM.

As for `CC(=O)N1CCC(Nc2cc(C(=O)N3CC[C@H](O)[C@@H](N4CCc5ccccc5C4)CC3)ncn2)CC1` [Example 124, 1-(4-((6-((4S,5S)-4-(3,4-dihydroisoquinolin-2(1H)-yl)-5-hydroxyazepane-1-carbonyl)pyrimidin-4-yl)amino)piperidin-1-yl)ethan-1-one], the IC50 was < 100 nM.

With `O=C(c1cc(NC2CCN(CC(F)(F)F)CC2)ncn1)N1CC[C@H](O)[C@@H](N2CCc3ccccc3C2)CC1` [Example 127], the IC50 was < 100 nM.

Consider `N#CC1CCC(Nc2cc(C(=O)N3CC[C@H](N4CCc5ccccc5C4)[C@@H](O)C3)ncn2)CC1` (stereo partly drawn) [Example 138, 4-((6-(trans-4-(3,4-dihydroisoquinolin-2(1H)-yl)-3-hydroxypiperidine-L-carbonyl)pyrimidin-4-yl)amino)cyclohexane-1-carbonitrile], for which the IC50 is < 100 nM.

Take `CC(=O)N1CCC(Nc2cc(C(=O)N3CC[C@H](N4CCc5ccccc5C4)[C@@H](O)C3)nc(-c3ccncc3)n2)CC1` [Example 139]: the IC50 is < 100 nM.

On to `CC(=O)N1CCC(Nc2cc(C(=O)N3CC[C@@H](N4CCc5ccccc5C4)[C@H](O)C3)nc(OCC(C)C)n2)CC1` [Example 140, 1-(4-((6-((3R,4R)-4-(3,4-dihydro-4,4-dideuterium-isoquinolin-2(1H)-yl)-3-hydroxypiperidine-1-carbonyl)-2-isobutoxypyrimidin-4-yl)amino)piperidin-1-yl)ethan-1-one], for which the IC50 is < 100 nM.

Regarding `CCC(CC)Oc1nc(NC2CCN(C(C)=O)CC2)cc(C(=O)N2CC[C@@H](N3CCc4ccccc4C3)[C@H](O)C2)n1` [Example 141, 1-(4-((6-((3R,4R)-4-(3,4-dihydro-4,4-dideuterium-isoquinolin-2(1H)-yl)-3-hydroxypiperidine-1-carbonyl)-2-(pentane-3-oxy)pyrimidin-4-yl)amino)piperidin-1-yl)-ethan-1-one], the IC50 is < 100 nM.

Consider `CC(=O)N1CCC(Nc2cc(C(=O)N3CC[C@@H](N4CCc5ccccc5C4)[C@H](O)C3)nc(N3CCN(C)CC3)n2)CC1` [Example 149, 1-(4-((6-((3R,4R)-4-(3,4-dihydroisoquinolin-2(1H)-yl)-3-hydroxypiperidine-1-carbonyl)-2-(4-methylpiperazin-1-yl)pyrimidin-4-yl)amino)piperidin-1-yl)ethan-1-one], for which the IC50 was < 100 nM.

For the molecule `C#Cc1nc(NC2CCN(C(C)=O)CC2)cc(C(=O)N2CC[C@@H](N3CCc4ccccc4C3)[C@H](O)C2)n1` [Example 150, 1-(4-((6-((3R,4R)-4-(3,4-dihydroisoquinolin-2(1H)-yl)-3-hydroxypiperidine-1-carbonyl)-2-ethynylpyrimidin-4-yl)amino)piperidin-1-yl)ethan-1-one], the IC50 was < 100 nM.
